Literature values as cited in patent US10184942B2, “Natriuretic peptide receptor as a biomarker for diagnosis and prognosis of cancer” (UNIVERSITY OF SOUTH FLORIDA, priority 2011, dated 2019).

Test system: PCa cells
Settings: in vitro and in mice

**Q.** With `CC[C@H](C)[C@@H]1NC(=O)[C@H](CCCNC(=N)N)NC(=O)[C@H](CC(=O)O)NC(=O)[C@H](CCSC)NC(=O)[C@H](CCCNC(=N)N)NC(=O)CNC(=O)CNC(=O)[C@H](Cc2ccccc2)NC(=O)[C@@H](NC(=O)[C@H](CO)NC(=O)[C@H](CO)NC(=O)[C@H](CCCNC(=N)N)NC(=O)[C@H](CCCNC(=N)N)NC(=O)[C@H](CC(C)C)NC(=O)[C@@H](N)CO)CSSC[C@@H](C(=O)N[C@@H](CC(N)=O)C(=O)N[C@@H](CO)C(=O)N[C@@H](Cc2ccccc2)C(=O)N[C@@H](CCCNC(=N)N)C(=O)N[C@@H](Cc2ccc(O)cc2)C(=O)O)NC(=O)CNC(=O)[C@H](CC(C)C)NC(=O)CNC(=O)[C@H](CO)NC(=O)[C@H](CCC(N)=O)NC(=O)[C@H](C)NC(=O)CNC1=O` [ANP, atrial natriuretic peptide] as the compound, how does the “proliferation of PCa cells” value read?
**A.** Its value is “inhibit the proliferation”.

**Q.** For “VD: vessel dilator, an ANP prohormone peptide (EVVPPQVLSEPNEEAGAALSPLPEVPPWTGEVSPAQR; Vessel dilator; UniProt P01160 56-92, looked up)”, which “proliferation of PCa cells” value is on record?
**A.** The value was “inhibit the proliferation”.
